The values below come from EP0933350A1, “Tricyclic retinoids, methods for their production and use” (LIGAND PHARMACEUTICALS INCORPORATED, priority 1994, dated 1996).

Test [1] concerns the target T1, RARα (Homo sapiens, UniProt P10276).
T1 sequence (P10276 1-462): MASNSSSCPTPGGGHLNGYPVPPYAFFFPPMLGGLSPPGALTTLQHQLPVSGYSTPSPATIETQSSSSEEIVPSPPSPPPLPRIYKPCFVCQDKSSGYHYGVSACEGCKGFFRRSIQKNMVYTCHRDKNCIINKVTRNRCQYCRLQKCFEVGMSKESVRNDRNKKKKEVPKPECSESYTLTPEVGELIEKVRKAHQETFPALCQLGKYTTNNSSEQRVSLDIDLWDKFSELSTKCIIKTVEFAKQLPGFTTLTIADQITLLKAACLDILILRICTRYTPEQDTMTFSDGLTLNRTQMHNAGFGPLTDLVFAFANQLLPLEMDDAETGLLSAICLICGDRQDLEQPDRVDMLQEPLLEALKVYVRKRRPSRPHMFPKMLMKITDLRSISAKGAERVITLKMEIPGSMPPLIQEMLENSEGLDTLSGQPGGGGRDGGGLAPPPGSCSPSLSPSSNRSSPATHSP
Nature of the test: co-transfection assay (RAR/RXR agonist activity, luciferase reporter in CV-1 cells). The format is cell-based. As to conditions: read-out: RARα Pot. Background: In a reporter assay the amount or activity of a reporter protein is the signal.

Test [2] deals with T2, RARβ (Homo sapiens, UniProt P10826).
T2 sequence (P10826 1-448 isoform P10826-2): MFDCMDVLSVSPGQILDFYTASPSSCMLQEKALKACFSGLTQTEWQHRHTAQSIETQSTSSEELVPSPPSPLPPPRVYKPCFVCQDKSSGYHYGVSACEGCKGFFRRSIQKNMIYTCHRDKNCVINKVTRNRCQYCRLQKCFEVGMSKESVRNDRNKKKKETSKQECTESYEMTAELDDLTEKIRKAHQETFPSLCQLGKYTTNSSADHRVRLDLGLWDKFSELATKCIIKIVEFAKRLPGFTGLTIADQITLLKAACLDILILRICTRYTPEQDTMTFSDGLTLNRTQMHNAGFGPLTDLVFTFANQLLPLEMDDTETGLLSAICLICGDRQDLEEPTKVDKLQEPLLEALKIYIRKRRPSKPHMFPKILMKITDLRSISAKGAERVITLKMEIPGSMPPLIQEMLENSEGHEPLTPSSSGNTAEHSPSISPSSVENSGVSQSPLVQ
The test is described as above. Format: cell-based. As to conditions: potency = EC50, agonist, 40 hours, read-out: RARβ Pot.

Test [3] concerns the target T3, RARγ (Homo sapiens, UniProt P13631).
T3 sequence (P13631 1-454): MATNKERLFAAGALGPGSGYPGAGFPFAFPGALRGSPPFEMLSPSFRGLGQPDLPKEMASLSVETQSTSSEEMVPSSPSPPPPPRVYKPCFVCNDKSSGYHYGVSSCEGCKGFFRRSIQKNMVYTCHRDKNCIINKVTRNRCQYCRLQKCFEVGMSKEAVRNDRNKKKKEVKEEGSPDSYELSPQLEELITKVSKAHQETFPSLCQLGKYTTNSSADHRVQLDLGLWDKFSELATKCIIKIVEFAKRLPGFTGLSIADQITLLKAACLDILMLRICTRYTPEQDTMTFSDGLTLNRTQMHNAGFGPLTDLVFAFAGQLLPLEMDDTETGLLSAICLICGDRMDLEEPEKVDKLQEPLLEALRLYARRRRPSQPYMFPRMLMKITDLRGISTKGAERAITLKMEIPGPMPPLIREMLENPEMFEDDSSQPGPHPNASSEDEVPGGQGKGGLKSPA
The test is described as above. Format: cell-based. The conditions noted are these: potency = EC50, agonist, 40 hours, read-out: RARγ Pot.

For test [4], the target named is T4, RXRα (Homo sapiens, UniProt P19793).
T4 sequence (P19793 1-462): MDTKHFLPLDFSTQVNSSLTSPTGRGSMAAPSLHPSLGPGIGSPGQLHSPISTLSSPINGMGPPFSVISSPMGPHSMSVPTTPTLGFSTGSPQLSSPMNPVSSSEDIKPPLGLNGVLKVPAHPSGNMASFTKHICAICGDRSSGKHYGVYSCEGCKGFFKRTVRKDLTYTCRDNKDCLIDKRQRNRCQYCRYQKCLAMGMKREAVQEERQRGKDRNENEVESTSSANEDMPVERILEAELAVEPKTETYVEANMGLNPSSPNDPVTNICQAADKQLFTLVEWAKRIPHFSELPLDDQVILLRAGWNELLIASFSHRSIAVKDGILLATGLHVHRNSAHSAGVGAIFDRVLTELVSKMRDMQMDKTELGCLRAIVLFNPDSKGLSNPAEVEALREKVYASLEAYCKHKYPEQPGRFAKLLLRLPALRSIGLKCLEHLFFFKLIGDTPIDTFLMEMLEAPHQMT
Described as above. Format: cell-based. The conditions noted are these: read-out: RXRα Pot.

The target in test [5] is T5, RXRβ (Mus musculus, UniProt P28704).
T5 sequence (P28704 1-520): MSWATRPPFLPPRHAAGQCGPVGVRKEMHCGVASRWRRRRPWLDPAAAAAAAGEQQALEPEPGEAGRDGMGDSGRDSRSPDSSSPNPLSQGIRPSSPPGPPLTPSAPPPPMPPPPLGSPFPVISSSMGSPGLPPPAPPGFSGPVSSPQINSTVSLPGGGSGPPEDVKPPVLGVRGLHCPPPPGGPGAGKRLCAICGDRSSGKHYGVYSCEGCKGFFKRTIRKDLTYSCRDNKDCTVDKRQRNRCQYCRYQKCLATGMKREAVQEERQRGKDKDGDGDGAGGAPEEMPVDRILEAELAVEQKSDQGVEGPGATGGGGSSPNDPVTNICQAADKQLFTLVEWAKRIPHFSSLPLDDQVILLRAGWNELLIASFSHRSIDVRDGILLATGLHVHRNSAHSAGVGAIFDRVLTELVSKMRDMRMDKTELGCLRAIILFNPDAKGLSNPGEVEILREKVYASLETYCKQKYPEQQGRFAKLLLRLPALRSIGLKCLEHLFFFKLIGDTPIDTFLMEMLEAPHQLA
Described as above. As to conditions: read-out: RXRβ Pot. The format is cell-based.

Test [6] concerns the target T6, RXRγ (Mus musculus, UniProt P28705).
T6 sequence (P28705 1-463): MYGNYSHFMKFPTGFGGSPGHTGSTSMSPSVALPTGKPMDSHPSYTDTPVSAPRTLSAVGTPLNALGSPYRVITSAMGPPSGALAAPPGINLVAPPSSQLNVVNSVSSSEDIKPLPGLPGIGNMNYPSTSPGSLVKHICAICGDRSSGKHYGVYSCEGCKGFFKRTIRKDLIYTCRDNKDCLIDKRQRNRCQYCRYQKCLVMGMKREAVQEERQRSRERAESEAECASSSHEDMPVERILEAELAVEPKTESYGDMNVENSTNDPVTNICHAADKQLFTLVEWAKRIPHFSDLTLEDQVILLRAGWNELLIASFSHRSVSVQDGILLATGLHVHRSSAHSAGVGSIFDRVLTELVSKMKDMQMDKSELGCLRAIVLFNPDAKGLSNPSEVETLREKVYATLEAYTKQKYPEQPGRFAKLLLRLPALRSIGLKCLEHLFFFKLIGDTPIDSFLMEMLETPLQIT
Described as above. Format: cell-based. As to conditions: read-out: RXRγ Pot.

The next test concerns RPMI 8226 cell line. The experiment in a line: viability (tetrazolium dye, mitochondrial function). As to conditions: Homo sapiens, 96 hours, read-out: MTS IC50. The format is cell-based.
The test system of another test is ME 180 cell line. The test is described as above. The format is cell-based. As to conditions: Homo sapiens, 96 hours, read-out: MTS IC50.
In another test the test system is AML-193 cell line. The test is described as above. The format is cell-based. The conditions noted are these: Homo sapiens, 96 hours, read-out: MTS IC50.
The target in test [7] is T1, RARα. Nature of the test: competitive binding of tritiated retinoids to retinoid receptors. The conditions noted are these: competition with tritiated retinoid, Cheng-Prussof equation.
Test [8] deals with T7, RARβ (Homo sapiens, UniProt P10826).
T7 sequence (P10826 1-455): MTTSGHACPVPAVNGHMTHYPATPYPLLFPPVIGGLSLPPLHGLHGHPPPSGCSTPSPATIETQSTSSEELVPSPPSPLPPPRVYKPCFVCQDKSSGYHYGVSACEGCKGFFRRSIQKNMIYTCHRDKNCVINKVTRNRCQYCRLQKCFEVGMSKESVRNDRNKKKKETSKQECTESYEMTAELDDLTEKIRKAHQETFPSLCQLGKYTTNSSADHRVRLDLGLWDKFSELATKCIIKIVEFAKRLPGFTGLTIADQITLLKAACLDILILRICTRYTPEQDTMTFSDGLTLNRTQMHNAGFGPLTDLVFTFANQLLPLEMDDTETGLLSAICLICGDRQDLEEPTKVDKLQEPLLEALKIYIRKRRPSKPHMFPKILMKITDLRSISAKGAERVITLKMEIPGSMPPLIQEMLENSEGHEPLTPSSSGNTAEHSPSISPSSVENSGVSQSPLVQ
The test is described as above. As to conditions: competition with tritiated retinoid, Cheng-Prussof equation.

Test [9] concerns the target T3, RARγ. Described as above. As to conditions: competition with tritiated retinoid, Cheng-Prussof equation.
Test [10] addresses T4, RXRα. The description is as above. As to conditions: competition with tritiated retinoid, Cheng-Prussof equation.
Test [11] concerns the target T5, RXRβ. Described as above. The conditions noted are these: competition with tritiated retinoid, Cheng-Prussof equation.
The target of test [12] is T6, RXRγ. Described as above. The conditions noted are these: competition with tritiated retinoid, Cheng-Prussof equation.

Turning to `CC(/C=C/CC1CCCc2cc3c(cc21)C(C)(C)CCC3(C)C)=C\C(=O)O` (racemic) [Compound 124b, (2E,4E)-3-Methyl-6-(1,2,3,4,5,6,7,8-octahydro-5,5,8,8-tetramethylanthracen-1-yl)hexa-2,4-dienoic acid], the EC50 on RARα [1] turned out to be 101 nM; on RARβ [2] it was 33 nM; on RARγ [3] it was 94 nM; at RXRα [4], 38 nM; at RXRβ [5] it was 37 nM; on RXRγ [6], 26 nM.

As usually defined, the IC50 is the concentration that gives 50% inhibition. On to `CC1=C(/C=C/C(C)=C/C=C/C(C)=C/C(=O)O)C(C)(C)CCC1` [ATRA, all-trans retinoic acid, reference compound], for which the IC50 in the test with RPMI 8226 cell line worked out at 756 nM; in the test on ME 180 cell line, 890 nM; with AML-193 cell line it was 1000 nM.

`CC(/C=C/C=C1/CCC(C)(C)c2cc3c(cc21)C(C)(C)CCC3(C)C)=C\C(=O)O` [Compound 106b, (2E,4E)-3-Methyl-6-[(Z)-1,2,3,4,5,6,7,8-hexahydro-4,4,5,5,8,8-hexamethyl-2H-anthracen-1-ylidene]hexa-2,4-dienoic acid]: the EC50 at RARα [1] is 84 nM; at RARβ [2] it was 20 nM; at RARγ [3], 14 nM; at RXRα [4] it was above 10000 nM; at RXRβ [5] it was 52 nM; on RXRγ [6], 127 nM.

For `CC(/C=C/C=C1\CCc2c1ccc1c2C(C)(C)CCC1(C)C)=C\C(=O)O` [Compound 135b, (2E,4E)-3-Methyl-6-[(E)-2,3,6,7,8,9-hexahydro-6,6,9,9-tetramethyl-1H-cyclopenta[a]naphthalen-3-ylidene]hexa-2,4-dienoic acid], the EC50 was determined as 1170 nM at RARα [1]; 53 nM on RARβ [2]; 47 nM on RARγ [3]; 2780 nM on RXRα [4]; 1980 nM at RXRβ [5]; 2530 nM at RXRγ [6].

In the case of `CC(/C=C/C(=O)N1CCc2cc3c(cc21)C(C)(C)CCC3(C)C)=C\C(=O)O` [Compound 141b, (2E,4E)-3-Methyl-6-oxo-6-[(2,3,5,6,7,8-hexahydro-5,5,8,8-tetramethyl)benzo-[f]-indol-1-yl]hexa-2,4-dienoic acid], the EC50 on RARα [1] is 863 nM; at RARβ [2], 32 nM; on RARγ [3], 12 nM; at RXRα [4], above 10000 nM; on RXRβ [5] it was above 10000 nM; at RXRγ [6], 2930 nM.

`CC(/C=C/CN1CCCc2c1ccc1c2C(C)(C)CCC1(C)C)=C\C(=O)O` [Compound 143b, (2E,4E)-3-Methyl-6-(1,2,3,4,7,8,9,10-octahydro-7,7,10,10-tetramethylbenzo[f]quinolin-4-yl)hexa-2,4-dienoic acid]: the EC50 on RARα [1] is above 10000 nM; on RARβ [2] it was 466 nM; on RARγ [3], 1880 nM; at RXRα [4], 393 nM; at RXRβ [5] it was 472 nM; at RXRγ [6], 247 nM.

Broadly, the Kd is the concentration at which binding is half-saturated. Lower therefore signals higher affinity. Turning to `CCN1CC\C(=C/C=C/C(C)=C/C(=O)O)c2cc3c(cc21)C(C)(C)CCC3(C)C` [Compound 147b, (2E,4E)-3-methyl-6-[(E)1-ethyl-6,6,9,9-tetramethyl-2,3,6,7,8,9-hexahydro-1H-benzo[g]quinolin-4-ylidene]hexa-2,4-dienoic acid], the EC50 on RARα [1] amounted to 35 nM; on RARβ [2], 4 nM; on RARγ [3], 1 nM; at RXRβ [5], 579 nM; at RXRγ [6], 1470 nM. Also, the Kd on RARα [7] worked out at 6 nM; on RARβ [8] it was 4 nM; at RARγ [9], 8 nM; on RXRα [10], 433 nM; on RXRβ [11], 548 nM; on RXRγ [12], 724 nM.

With `CC1(C)CCC(C)(C)c2cc3c(cc21)CCC/C3=N\Nc1ccc(C(=O)O)cc1` [Compound 152b, E-4-[N'-(5,5,8,8-tetramethyl-3,4,5,6,7,8-hexahydro-2H-anthracen-1-ylidene)-hydrazino]benzoic acid], the EC50 at RARα [1] is 651 nM; on RARβ [2], 8 nM; on RARγ [3], 32 nM; at RXRα [4] it was above 10000 nM; at RXRβ [5], above 10000 nM; at RXRγ [6], above 10000 nM.
